Assays:
[1] = system: PAF-induced platelet aggregation; assay: In vitro PAF-induced platelet aggregation rate of rabbits; type: cell-based, New Zealand white rabbits; conditions: compositions 9.26 μg/ml, nimodipine 0.05 μg/ml
Procedure: (§1) Rabbits were treated with procaine by local anesthesia, carotid arterial cannulation and bleeding. […] Incubation was performed for 5 min, then 10 μl of 146 μg/ml ADP and 10 μl of 10 μg/ml PAF were added in turn. […] Aggregation inhibition rate (%)=(maximum aggregation rate of blank control group−maximum aggregation rate of administration group)/maximum aggregation rate of blank control group×100%. The experimental data was expressed as x±s and analyzed by SPSS 17.0 statistical software. The comparison of means between multiple groups was performed by one-way analysis of variance. The comparison of sample means between two groups was performed by q test. P<0.05 was considered statistically significant.

[2] = system: right middle cerebral artery occlusion (MCAO) model; assay: Focal cerebral ischemia-reperfusion injury (MCAO) model in rats; type: in vivo, SD rats; conditions: nimodipine 10.8 mg/kg, x ± s, n = 10
[3] = system: ADP-induced platelet aggregation; assay: In vitro ADP-induced platelet aggregation rate of rabbits; type: cell-based, New Zealand white rabbits; conditions: compositions 9.26 μg/ml, nimodipine 0.05 μg/ml
Procedure: as §1

[4] = PAF 0.37 μg/ml, rabbit PRP, x ± s, n = 10
[5] = serum 24 hours after reperfusion, compositions 2.4 g·kg^−1 i.v.
[6] = ADP 5.4 μg/ml, rabbit PRP, x ± s, n = 10

## COCCOC(=O)C1=C(C)NC(C)=C(C(=O)OC(C)C)C1c1cccc([N+](=O)[O-])c1 (stereo not shown) [Nimodipine]
[1]; Oryctolagus cuniculus, Platelet, PAF-induced, from maximum aggregation rate vs blank control
  inhibition at 0.05 µg/mL: 27%
[1]; [4]
  Platelet aggregation rate 1 min: 27.13 ± 2.06
  Platelet aggregation rate 5 min: 42.18 ± 9.73
  Platelet aggregation rate Max: 48.08 ± 5.82
[2]; TTC staining 24 hours after re-perfusion, compositions 2.4 g·kg^−1 i.v.
  Infarct size %: 15.49 ± 5.94%
[2]; brain water content 24 hours after re-perfusion, compositions 2.4 g·kg^−1 i.v.
  BWC %: 68.36 ± 8.97%
[2]; rat MCAO, 3 h ischemia, after reperfusion, compositions 2.4 g·kg^−1 tail vein injection
  Neurologic score: 2.70 ± 0.95
[2]; [5]
  MDA/nmol* mg^−1: 5.79 ± 1.75 nmol/mg
  SOD/U*mg^−1: 26.94 ± 4.37 U*mg^−1
[3]; [6]
  Platelet aggregation rate 1 min: 26.46 ± 4.41
  Platelet aggregation rate 5 min: 38.33 ± 5.80
  Platelet aggregation rate Max: 41.85 ± 4.87
[3]; Oryctolagus cuniculus, Platelet, ADP-induced, from maximum aggregation rate vs blank control
  inhibition at 0.05 µg/mL: 16%

Source: patent US11564904B2, “Gingko diterpene lactone composition” (Jiangsu Kanion Pharmaceutical Co., Ltd., priority 2017, dated 2023)
